Reference: patent US20210284638A1 (Saint Louis University, priority 2018, published 2021)

How the values were obtained:
Format in all cases: binding
[1] = biological target: T1, Recombinant human integrin αVβ5 (Homo sapiens, UniProt P06756+P18084); experiment: Solid Phase Receptor Assay (SPRA) for αVβ5 function; conditions: plate-bound human vitronectin
T1 construct: purchased R&D Systems 2528-AV
Procedure: D. Solid Phase Receptor Assay (SPRA) for αVβ5 Function
(§1) Wells were washed 3 times with 150 μL TBS+ and then 150 μL of blocking buffer (TBS+ with 1% bovine serum albumin, Sigma A7906) was added. The plate was incubated for 1 hr at 37° C. and then washed 3× with TBS+ buffer. […] Compounds were diluted to 20 μM and then 1 μL was added to each well of the plate according to a standard template with each sample repeated in triplicate. After incubation for two hours at room temperature, the plate was washed 3× with 150 μL of TBS+ buffer. To each well, 50 μl of biotinylated anti-αV antibody (R&D Systems, BAF1219) at 0.5 μg/mL in TBS+/0.1% BSA at 0.5 μg/mL were added and the plate covered and incubated for 1 hr at room temperature. After washing the plate 3× with 150 μL of TBS+ buffer, 50 μL of streptavidin-conjugated horseradish peroxidase (R&D Systems, DY998) diluted in TBS+ blocking buffer were added to the wells and the plate incubated for 20 min at room temperature. The plate was washed 3× with TBS+ buffer followed by 50 μL of TMB substrate (Sigma T4444) added to each well in the dark and the plate incubated for 5 min at room temperature. 25 μL of 1.0 M phosphoric acid was added as a stop solution and the plates were read at 450 nm using a Spectramax plate reader.

[2] = biological target: T2, Recombinant human integrin αVβ8 (Homo sapiens, UniProt P06756+P26012); experiment: Solid Phase Receptor Assay for αVβ8 function; conditions: plate-bound human LAP; read-out: αVβ8 SPRA IC50
T2 construct: purchased R&D Systems 4135-AV
Procedure: F. Solid Phase Receptor Assay (SFRA) for αVβ8 Function
Wells were washed 3 times with 150 μL TBS+ and then 150 μL of blocking buffer (TBS+ with 1% bovine serum albumin, Sigma A7906) was added. The plate was incubated for 1 hr at 37° C. and then washed 3× with TBS+. […] Compounds were diluted to 20 μM and 1 μL was added to each well of the plate according to a standard template with each sample repeated in triplicate. After incubation for two hours at room temperature, the plate was washed 3× with 150 μL of TBS+. To each well, 50 μL of biotinylated anti-αV antibody (R&D Systems, BAF1219) at 1 μg/mL in TBS+/0.1% BSA were added and the plate was covered and incubated for 1 hr at room temperature. After washing the plate 3× with 150 μL of TBS+ buffer, 50 μL of streptavidin-conjugated horseradish peroxidase (R&D Systems, DY998) diluted in TBS+ blocking buffer were added to the wells and the plate incubated for 20 min at room temperature. The plate was washed 3× with TBS+ followed by 50 μL of TMB substrate (Sigma T4444) added to each well in the dark and the plate incubated for 10 min at room temperature. 25 μL of 1.0 M phosphoric acid was added as a stop solution and the plates were read at 450 nm using a Spectramax plate reader.

[3] = biological target: T3, Recombinant human integrin α5β1 (Homo sapiens, UniProt P05556+P08648); experiment: Solid Phase Receptor Assay (SPRA) for α5β1 function; conditions: plate-bound human fibronectin
T3 construct: purchased R&D Systems 3230-A5
Procedure: A. Solid Phase Receptor Assay (SPRA) for α5β1 Function
Wells were washed 3 times with 150 μL TBS+ and then 150 μL of blocking buffer (TBS+ with 1% bovine serum albumin, Sigma A7906) was added. The plate was incubated for 1 hr at 37° C. and then washed 3× with TBS+ buffer. […] Compounds were diluted to 20 μM and then 1 μL was added to each well of the plate according to a standard template with each sample repeated in triplicate. After incubation for two hours at room temperature, the plate was washed 3× with 150 μL of TBS+ buffer. To each well, 50 μL of biotinylated anti-α5 antibody (R&D Systems, BAF1864) at 0.5 μg/mL in TBS+/0.1% BSA were added and the plate covered and incubated for 1 hr at room temperature. After washing the plate 3× with 150 μL of TBS+ buffer, 50 μL of streptavidin-conjugated horseradish peroxidase (R&D Systems, DY998) diluted in TBS+ blocking buffer were added to the wells and the plate incubated for 20 min at room temperature. The plate was washed 3× with TBS+ buffer followed by 50 μL of room temperature TMB substrate (Sigma, T4444) added to each well in the dark and the plate incubated for 25 min at room temperature. 25 μL of 1.0 M phosphoric acid was added as a stop solution and the plates were read at 450 nm using a Spectramax plate reader.

[4] = biological target: T4, Recombinant human integrin αvβ1 (Homo sapiens, UniProt P05556+P06756); experiment: Solid Phase Receptor Assay (SPRA) for αVβ1 function; conditions: plate-bound human fibronectin
T4 construct: purchased R&D Systems 6579-AV
Procedure: B. Solid Phase Receptor Assay (SPRA) for αVβ1 Function
as §1, with “μM and 1 μL” for “μM and then 1 μL”, “well, 50 μL of biotinylated” for “well, 50 μl of biotinylated”, “BAF1219) at 1 μg/mL in” for “BAF1219) at 0.5 μg/mL in”, “TBS+/0.1% BSA were added” for “TBS+/0.1% BSA at 0.5 μg/mL were added”, “TMB substrate (Sigma, T4444) added” for “TMB substrate (Sigma T4444) added”, “incubated for 25 min at” for “incubated for 5 min at”

T3 sequence (P08648 42-995 limits assumed): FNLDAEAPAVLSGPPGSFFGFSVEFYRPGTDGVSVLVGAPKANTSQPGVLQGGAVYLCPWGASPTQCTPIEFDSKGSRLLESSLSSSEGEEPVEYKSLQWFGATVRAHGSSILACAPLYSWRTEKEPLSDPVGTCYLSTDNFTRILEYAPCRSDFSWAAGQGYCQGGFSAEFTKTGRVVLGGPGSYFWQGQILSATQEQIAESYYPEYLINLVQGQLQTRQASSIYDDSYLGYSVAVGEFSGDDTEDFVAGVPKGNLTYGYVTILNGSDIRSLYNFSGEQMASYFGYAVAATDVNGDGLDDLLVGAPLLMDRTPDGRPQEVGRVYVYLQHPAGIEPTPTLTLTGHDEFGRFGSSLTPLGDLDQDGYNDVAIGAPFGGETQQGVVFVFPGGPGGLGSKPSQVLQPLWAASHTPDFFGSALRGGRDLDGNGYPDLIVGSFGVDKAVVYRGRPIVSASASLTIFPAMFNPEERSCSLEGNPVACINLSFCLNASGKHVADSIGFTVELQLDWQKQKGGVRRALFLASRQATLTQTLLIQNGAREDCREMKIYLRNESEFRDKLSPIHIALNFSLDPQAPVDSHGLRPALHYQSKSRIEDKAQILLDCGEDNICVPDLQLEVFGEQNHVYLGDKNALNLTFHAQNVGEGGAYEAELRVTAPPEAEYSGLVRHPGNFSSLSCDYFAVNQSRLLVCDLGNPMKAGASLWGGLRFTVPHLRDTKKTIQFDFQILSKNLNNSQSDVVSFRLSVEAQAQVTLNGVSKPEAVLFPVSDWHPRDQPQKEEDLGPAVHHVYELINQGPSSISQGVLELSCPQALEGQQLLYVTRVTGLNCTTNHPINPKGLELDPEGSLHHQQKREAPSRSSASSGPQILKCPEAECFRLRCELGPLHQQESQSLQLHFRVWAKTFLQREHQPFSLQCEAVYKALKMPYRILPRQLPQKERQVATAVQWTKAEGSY
T3 sequence (P05556 21-728 limits assumed): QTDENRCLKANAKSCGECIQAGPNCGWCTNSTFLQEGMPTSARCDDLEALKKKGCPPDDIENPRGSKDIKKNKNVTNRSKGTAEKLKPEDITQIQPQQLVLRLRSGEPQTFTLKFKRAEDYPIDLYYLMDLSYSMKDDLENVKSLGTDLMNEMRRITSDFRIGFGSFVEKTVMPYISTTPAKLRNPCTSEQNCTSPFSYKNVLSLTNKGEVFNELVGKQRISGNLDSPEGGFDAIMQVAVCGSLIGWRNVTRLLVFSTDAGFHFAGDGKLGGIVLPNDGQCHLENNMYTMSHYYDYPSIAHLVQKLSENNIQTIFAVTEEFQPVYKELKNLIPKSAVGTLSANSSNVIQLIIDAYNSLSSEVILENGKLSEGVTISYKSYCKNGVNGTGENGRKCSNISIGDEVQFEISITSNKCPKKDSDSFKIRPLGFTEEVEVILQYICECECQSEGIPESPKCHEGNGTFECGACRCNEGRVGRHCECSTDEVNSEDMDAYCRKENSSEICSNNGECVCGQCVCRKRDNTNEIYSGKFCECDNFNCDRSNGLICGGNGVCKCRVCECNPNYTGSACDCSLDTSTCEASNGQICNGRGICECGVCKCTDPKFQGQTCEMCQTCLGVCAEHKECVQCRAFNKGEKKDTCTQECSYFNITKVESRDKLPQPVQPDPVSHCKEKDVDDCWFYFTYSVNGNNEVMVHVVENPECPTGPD
T2 sequence (P06756 31-992 limits assumed): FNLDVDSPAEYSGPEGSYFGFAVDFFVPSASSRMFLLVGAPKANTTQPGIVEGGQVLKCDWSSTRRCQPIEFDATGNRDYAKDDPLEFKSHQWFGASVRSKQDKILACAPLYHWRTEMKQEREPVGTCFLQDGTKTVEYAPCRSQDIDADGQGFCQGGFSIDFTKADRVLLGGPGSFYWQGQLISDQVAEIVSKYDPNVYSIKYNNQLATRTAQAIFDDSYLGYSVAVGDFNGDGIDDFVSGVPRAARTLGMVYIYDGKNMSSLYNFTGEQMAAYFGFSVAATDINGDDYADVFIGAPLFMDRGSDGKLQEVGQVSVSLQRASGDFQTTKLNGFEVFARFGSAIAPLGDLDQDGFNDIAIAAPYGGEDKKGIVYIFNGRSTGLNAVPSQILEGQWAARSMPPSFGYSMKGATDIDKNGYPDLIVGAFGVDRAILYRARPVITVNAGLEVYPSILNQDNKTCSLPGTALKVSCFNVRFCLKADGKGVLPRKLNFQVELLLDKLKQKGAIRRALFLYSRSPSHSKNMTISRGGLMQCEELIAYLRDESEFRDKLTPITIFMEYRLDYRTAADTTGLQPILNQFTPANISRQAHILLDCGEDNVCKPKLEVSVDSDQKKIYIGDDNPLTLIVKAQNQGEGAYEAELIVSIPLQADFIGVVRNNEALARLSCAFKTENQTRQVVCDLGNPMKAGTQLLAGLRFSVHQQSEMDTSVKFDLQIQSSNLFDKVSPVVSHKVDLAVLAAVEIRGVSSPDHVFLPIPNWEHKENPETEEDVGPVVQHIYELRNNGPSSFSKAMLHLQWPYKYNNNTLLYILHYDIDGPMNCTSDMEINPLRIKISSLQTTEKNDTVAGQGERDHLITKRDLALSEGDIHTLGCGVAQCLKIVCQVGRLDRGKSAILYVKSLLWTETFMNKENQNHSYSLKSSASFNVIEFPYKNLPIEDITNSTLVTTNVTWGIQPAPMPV
T2 sequence (P26012 43-684 limits assumed): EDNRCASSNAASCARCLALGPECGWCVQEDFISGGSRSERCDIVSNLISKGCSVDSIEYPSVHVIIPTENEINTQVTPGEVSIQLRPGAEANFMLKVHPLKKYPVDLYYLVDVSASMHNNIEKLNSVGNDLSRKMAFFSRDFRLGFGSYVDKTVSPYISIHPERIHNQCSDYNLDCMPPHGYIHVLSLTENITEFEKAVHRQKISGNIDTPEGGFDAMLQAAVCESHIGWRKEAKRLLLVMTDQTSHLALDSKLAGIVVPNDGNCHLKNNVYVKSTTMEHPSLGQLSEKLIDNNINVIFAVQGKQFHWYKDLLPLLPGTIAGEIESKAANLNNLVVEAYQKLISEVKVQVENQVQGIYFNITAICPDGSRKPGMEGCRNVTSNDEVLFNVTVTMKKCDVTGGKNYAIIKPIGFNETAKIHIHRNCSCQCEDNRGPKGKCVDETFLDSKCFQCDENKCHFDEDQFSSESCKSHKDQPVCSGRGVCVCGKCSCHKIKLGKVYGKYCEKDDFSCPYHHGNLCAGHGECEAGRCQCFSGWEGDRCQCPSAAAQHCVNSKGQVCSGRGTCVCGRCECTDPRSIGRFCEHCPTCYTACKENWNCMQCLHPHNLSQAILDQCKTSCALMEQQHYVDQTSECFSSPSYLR
T1 sequence (P06756 31-992 limits assumed): as the sequence (P06756 31-992 limits assumed) above
T1 sequence (P18084 24-719 limits assumed): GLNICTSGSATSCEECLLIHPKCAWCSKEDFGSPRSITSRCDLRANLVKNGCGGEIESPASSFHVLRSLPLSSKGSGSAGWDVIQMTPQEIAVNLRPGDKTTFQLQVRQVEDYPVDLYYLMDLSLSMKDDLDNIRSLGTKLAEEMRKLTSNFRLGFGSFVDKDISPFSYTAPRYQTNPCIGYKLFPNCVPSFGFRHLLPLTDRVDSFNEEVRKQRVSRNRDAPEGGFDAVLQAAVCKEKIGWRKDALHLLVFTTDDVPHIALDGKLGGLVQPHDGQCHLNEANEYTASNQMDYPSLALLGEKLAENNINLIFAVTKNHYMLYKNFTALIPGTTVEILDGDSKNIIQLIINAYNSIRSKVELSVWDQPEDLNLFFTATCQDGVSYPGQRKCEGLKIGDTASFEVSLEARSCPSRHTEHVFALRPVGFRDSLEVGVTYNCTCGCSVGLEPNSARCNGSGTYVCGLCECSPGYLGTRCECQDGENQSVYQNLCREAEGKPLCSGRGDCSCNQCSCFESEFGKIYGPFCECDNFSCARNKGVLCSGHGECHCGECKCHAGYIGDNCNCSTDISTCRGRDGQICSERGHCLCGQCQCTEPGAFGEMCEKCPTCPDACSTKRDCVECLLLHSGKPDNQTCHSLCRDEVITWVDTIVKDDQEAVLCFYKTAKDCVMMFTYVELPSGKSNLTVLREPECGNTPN
T4 sequence (P06756 31-992 limits assumed): as the sequence (P06756 31-992 limits assumed) above
T4 sequence (P05556 21-728 limits assumed): as the sequence (P05556 21-728 limits assumed) above

SMILES	IC50 [1] [nM]	IC50 [2] [nM]	IC50 [3] [nM]	IC50 [4] [nM]
Cn1nc(CC(CC(=O)O)c2cc(C(C)(C)C)cc(C(C)(C)C#N)c2)cc1OCCc1ccc2c(n1)NCCC2 (stereo not drawn) [Example 9, 3-[3-tert-butyl-5-(1-cyano-1-methyl-ethyl)phenyl]-4-[1-methyl-5-[2-(5,6,7,8-tetrahydro-1,8-naphthyridin-2-yl)ethoxy]pyrazol-3-yl]butanoic acid]	32	8	1	2
COc1c(C(C)(C)C)cc(C(CC(=O)O)Cc2cc(OCCc3ccc4c(n3)NCCC4)n(C)n2)cc1C(C)(C)C (stereo not drawn) [Example 10, 3-(3,5-di-tert-butyl-4-methoxyphenyl)-4-(1-methyl-5-(2-(5,6,7,8-tetrahydro-1,8-naphthyridin-2-yl)ethoxy)-1H-pyrazol-3-yl)butanoic acid]	84	92	15	4
COc1c(C(CC(=O)O)Cc2cc(OCCc3ccc4c(n3)NCCC4)n(C)n2)cc(C(C)(C)C)cc1C(C)(C)C (stereo not drawn) [Example 11, 3-(3,5-di-tert-butyl-2-methoxyphenyl)-4-(1-methyl-5-(2-(5,6,7,8-tetrahydro-1,8-naphthyridin-2-yl)ethoxy)-1H-pyrazol-3-yl)butanoic acid]	17000	740	15000	800
COc1c(Br)cc(C(C)(C)C)cc1C(CC(=O)O)Cc1cc(OCCc2ccc3c(n2)NCCC3)n(C)n1 (stereo not drawn) [Example 12, 3-(3-bromo-5-(tert-butyl)-2-methoxyphenyl)-4-(1-methyl-5-(2-(5,6,7,8-tetrahydro-1,8-naphthyridin-2-yl)ethoxy)-1H-pyrazol-3-yl)butanoic acid]	160	17	180	13
COc1cc(C(CC(=O)O)Cc2cc(OCCc3ccc4c(n3)NCCC4)n(C)n2)cc(C23CC4CC(CC(C4)C2)C3)c1OCc1ccccc1 (stereo not drawn) [Example 13, 3-[3-(1-adamantyl)-4-benzyloxy-5-methoxy-phenyl]-4-[1-methyl-5-[2-(5,6,7,8-tetrahydro-1,8-naphthyridin-2-yl)ethoxy]pyrazol-3-yl]butanoic acid]	140	540	210	21
COc1cc(C(CC(=O)O)Cc2cc(OCCc3ccc4c(n3)NCCC4)n(C)n2)cc(C23CC4CC(CC(C4)C2)C3)c1OC (stereo not drawn) [Example 14, 3-[3-(1-adamantyl)-4,5-dimethoxy-phenyl]-4-[1-methyl-5-[2-(5,6,7,8-tetrahydro-1,8-naphthyridin-2-yl)ethoxy]pyrazol-3-yl]butanoic acid]	9	170	47	9
Cn1nc(CC(CC(=O)O)c2cc3c(c(C(C)(C)C)c2)OCO3)cc1OCCc1ccc2c(n1)NCCC2 (stereo not drawn) [Example 15]	0.2	120	28	3
Cn1nc(CC(CC(=O)O)c2cc3c(c(C(C)(C)C)c2)OCCO3)cc1OCCc1ccc2c(n1)NCCC2 (stereo not drawn) [Example 16, 3-(8-(tert-butyl)-2,3-dihydrobenzo[b][1,4]dioxin-6-yl)-4-(1-methyl −5-(2-(5,6,7,8-tetrahydro-1,8-naphthyridin-2-yl)ethoxy)-1H-pyrazol-3-yl) butanoic acid]	0.7	41	18	5
Cn1nc(CC(CC(=O)O)c2cc(C(C)(C)C)ccc2Br)cc1OCCc1ccc2c(n1)NCCC2 (stereo not drawn) [Example 17, 3-(2-bromo-5-(tert-butyl)phenyl)-4-(1-methyl-5-(2-(5,6,7,8-tetrahydro-1,8-naphthyridin-2-yl)ethoxy)-1H-pyrazol-3-yl)butanoic acid]	230	110	120	14
Cn1nc(CC(CC(=O)O)c2cc(C(C)(C)C)ccc2C#N)cc1OCCc1ccc2c(n1)NCCC2 (stereo not drawn) [Example 18, 3-(5-(tert-butyl)-2-cyanophenyl)-4-(1-methyl-5-(2-(5,6,7,8-tetrahydro-1,8-naphthyridin-2-yl)ethoxy)-1H-pyrazol-3-yl)butanoic acid]	4	3	4	5
Cn1nc(CC(CC(=O)O)c2cc(C(C)(C)C)ccc2F)cc1OCCc1ccc2c(n1)NCCC2 (stereo not drawn) [Example 19, 3-(5-(tert-butyl)-2-fluorophenyl)-4-(1-methyl-5-(2-(5,6,7,8-tetrahydro-1,8-naphthyridin-2-yl)ethoxy)-1H-pyrazol-3-yl)butanoic acid]	0.6	58	10	7
Cn1nc(CC(CC(=O)O)c2cc(C(C)(C)C)ccc2OC(F)(F)F)cc1OCCc1ccc2c(n1)NCCC2 (stereo not drawn) [Example 20, 3-(5-(tert-butyl)-2-(trifluoromethoxy)phenyl)-4-(1-methyl-5-(2-(5,6,7,8-tetrahydro-1,8-naphthyridin-2-yl)ethoxy)-1H-pyrazol-3-yl)butanoic acid]	590	67	9	6
COc1ccc(C2(C(F)F)CC2)cc1C(CC(=O)O)Cc1cc(OCCc2ccc3c(n2)NCCC3)n(C)n1 (stereo not drawn) [Example 21, 3-[5-[1-(difluoromethyl)cyclopropyl]-2-methoxy-phenyl]-4-[1-methyl-5-[2-(5,6,7,8-tetrahydro-1,8-naphthyridin-2-yl)ethoxy]pyrazol-3-yl]butanoic acid]	290	140	29	10
COc1ccc(C(C)(C)O)cc1C(CC(=O)O)Cc1cc(OCCc2ccc3c(n2)NCCC3)n(C)n1 (stereo not drawn) [Example 22, 3-(5-(2-hydroxypropan-2-yl)-2-methoxyphenyl)-4-(1-methyl-5-(2-(5,6,7,8-tetrahydro-1,8-naphthyridin-2-yl)ethoxy)-1H-pyrazol-3-yl)butanoic acid]	10	79	2	3
COc1ccc(C2COC2)cc1C(CC(=O)O)Cc1cc(OCCc2ccc3c(n2)NCCC3)n(C)n1 (stereo not drawn) [Example 23, 3-[2-methoxy-5-(oxetan-3-yl)phenyl]-4-[1-methyl-5-[2-(5,6,7,8-tetrahydro-1,8-naphthyridin-2-yl)ethoxy]pyrazol-3-yl]butanoic acid]	29	190	36	8
